These results are taken from PubChem BioAssay (NCI).

Molecules are shown by their SMILES.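 Following 48 hours of exposure in 96-well plates, responses at five concentrations were used to interpolate endpoints linearly. GI50: concentration for 50% inhibition of growth. The concentration for full growth arrest is given as TGI.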 Bounds are passed on as bounds.

Among the test systems are M14 melanoma; T-47D breast; SN12C renal; SK-MEL-2 melanoma; MALME-3M melanoma; SK-OV-3 ovarian; SK-MEL-5 melanoma; CAKI-1 renal; NCI/ADR-RES ovarian; 786-0 renal.
What all share (experiment): growth of human tumour cells (NCI), 48 h

`CCc1ccc(/C=C/c2ccc(O)c3ncccc23)[n+](C)c1`: the TGI in the test with M14 melanoma, in the test on T-47D breast, with SN12C renal, in the test with SK-MEL-2 melanoma, in the test on MALME-3M melanoma and with SK-OV-3 ovarian was more than 100 µM throughout. The TGI with SK-MEL-5 melanoma, in the test with CAKI-1 renal, with NCI/ADR-RES ovarian and in the test with 786-0 renal was more than 100 µM throughout. For the same compound, the GI50 in the test with T-47D breast is 1.66 µM; in the test on SN12C renal, 0.457 µM; with SK-MEL-2 melanoma it was more than 71.7 µM; in the test with MALME-3M melanoma, 13.7 µM; in the test on SK-OV-3 ovarian, 26.9 µM; in the test with SK-MEL-5 melanoma, 3.55 µM. Besides, the GI50 in the test on CAKI-1 renal is 39.2 µM; in the test on NCI/ADR-RES ovarian, more than 100 µM; in the test on 786-0 renal it was more than 100 µM.
In the case of `CN(C)C(=S)Sc1ccc([N+](=O)[O-])cc1[N+](=O)[O-]`, the GI50 with M14 melanoma was 2.5 µM; in the test with T-47D breast it was 1.56 µM; in the test with SN12C renal it was 3.24 µM; in the test on SK-MEL-2 melanoma it was 4.21 µM; in the test on MALME-3M melanoma it was 1.38 µM; with SK-OV-3 ovarian, 12 µM. In addition, the GI50 is 1.73 µM in the test on SK-MEL-5 melanoma, 1.58 µM with CAKI-1 renal, 4.73 µM in the test with NCI/ADR-RES ovarian and 5.3 µM with 786-0 renal. Also, the TGI in the test with M14 melanoma stood at 9.46 µM; with T-47D breast, 3.75 µM; in the test with SN12C renal, 11.2 µM; in the test on SK-MEL-2 melanoma, 9.86 µM; in the test with MALME-3M melanoma, 3.17 µM; in the test on SK-OV-3 ovarian, 31.2 µM. Also, the TGI in the test with SK-MEL-5 melanoma was 5.82 µM; with CAKI-1 renal it was 4.79 µM; in the test on NCI/ADR-RES ovarian it was 16.8 µM; in the test with 786-0 renal, 16 µM.
For the compound `Nc1c(C(=O)c2ccccc2)cnn1-c1ccc(F)cc1`, the GI50 in the test with M14 melanoma, in the test on T-47D breast, in the test with SN12C renal, in the test on SK-MEL-2 melanoma, in the test on MALME-3M melanoma and in the test on SK-OV-3 ovarian was more than 25 µM in each case. The GI50 in the test with SK-MEL-5 melanoma, in the test on CAKI-1 renal, with NCI/ADR-RES ovarian and in the test on 786-0 renal was more than 25 µM in each case. Moreover, the TGI in the test on M14 melanoma, in the test with T-47D breast, in the test with SN12C renal, in the test on SK-MEL-2 melanoma, in the test with MALME-3M melanoma and in the test with SK-OV-3 ovarian was more than 25 µM in each case. The TGI in the test with SK-MEL-5 melanoma, in the test with CAKI-1 renal, in the test on NCI/ADR-RES ovarian and with 786-0 renal was more than 25 µM throughout.
With `CN(C)c1ncnc2c1ncn2CCn1cnc2c(N(C)C)ncnc21`, the TGI in the test with M14 melanoma, in the test with T-47D breast, in the test with SN12C renal, in the test with SK-MEL-2 melanoma, with MALME-3M melanoma and in the test with SK-OV-3 ovarian was more than 100 µM each time. Further, the TGI with SK-MEL-5 melanoma, in the test on CAKI-1 renal, in the test on NCI/ADR-RES ovarian and in the test with 786-0 renal was more than 100 µM in each case.
`C[C@H]1CN[C@@H]2[C@@H](C)[C@H]3[C@@H](C[C@H]4[C@@H]5CC[C@H]6C[C@@H](N)CC[C@]6(C)[C@H]5CC[C@]34C)O[C@@]2(O)C1`: the TGI in the test on M14 melanoma turned out to be 4.73 µM; in the test with T-47D breast it was 4.51 µM; in the test on SN12C renal, 4.25 µM; in the test with SK-MEL-2 melanoma, 12.2 µM; in the test with MALME-3M melanoma, 3.23 µM; in the test on SK-OV-3 ovarian, 19.7 µM. Further, the TGI is 10.4 µM with SK-MEL-5 melanoma, 6.43 µM in the test with CAKI-1 renal, 5.66 µM in the test on NCI/ADR-RES ovarian and 3.66 µM with 786-0 renal.
For the compound `Cc1cc2cc3c(=O)[nH]c(=O)[nH]c3nc2cc1C`, the TGI in the test with M14 melanoma, with T-47D breast, with SN12C renal, in the test on SK-MEL-2 melanoma, in the test on MALME-3M melanoma and with SK-OV-3 ovarian was more than 100 µM in each case. In addition, the TGI in the test on SK-MEL-5 melanoma, with CAKI-1 renal, in the test on NCI/ADR-RES ovarian and in the test on 786-0 renal was more than 100 µM throughout.
In the case of `Cn1c(Nc2ccc(C(F)(F)F)cc2)nc2cc(Oc3ccnc(-c4ncc(C(F)(F)F)[nH]4)c3)ccc21`, the GI50 in the test with M14 melanoma is 0.0338 µM; with T-47D breast, 2.3 µM; with SN12C renal it was 0.0855 µM; with SK-MEL-2 melanoma it was 0.0387 µM; in the test on MALME-3M melanoma it was 0.0284 µM; in the test with SK-OV-3 ovarian it was 0.0385 µM. In addition, the GI50 was 0.34 µM in the test with SK-MEL-5 melanoma, 0.0609 µM in the test with CAKI-1 renal, 1.64 µM in the test with NCI/ADR-RES ovarian and 2.22 µM in the test with 786-0 renal. Besides, the TGI turned out to be 1.33 µM with M14 melanoma; 17.4 µM with T-47D breast; 16.6 µM with SN12C renal; 0.728 µM with SK-MEL-2 melanoma; 0.154 µM in the test on MALME-3M melanoma; 19.1 µM with SK-OV-3 ovarian. Moreover, the TGI in the test with SK-MEL-5 melanoma was determined as 4.96 µM; in the test with CAKI-1 renal, 15.4 µM; in the test with NCI/ADR-RES ovarian, 13.4 µM; with 786-0 renal, 13.9 µM.
Take `O=C(NNc1ccccc1)C(=O)NNc1ccccc1`: the GI50 in the test on T-47D breast was 0.52 µM; in the test with SN12C renal, more than 100 µM; in the test on SK-MEL-2 melanoma, 2.63 µM; in the test with MALME-3M melanoma, more than 100 µM; in the test on SK-OV-3 ovarian, more than 100 µM; in the test with SK-MEL-5 melanoma, 10.8 µM. For the same compound, the GI50 is 0.795 µM with CAKI-1 renal, more than 100 µM in the test on NCI/ADR-RES ovarian and 53.9 µM in the test with 786-0 renal. The TGI in the test on T-47D breast, in the test with SN12C renal, in the test with SK-MEL-2 melanoma, in the test on MALME-3M melanoma, in the test with SK-OV-3 ovarian and in the test on SK-MEL-5 melanoma was more than 100 µM each time. Also, the TGI in the test with CAKI-1 renal, in the test on NCI/ADR-RES ovarian and in the test with 786-0 renal was more than 100 µM in each case.
`COc1cc(/C=C\c2cc(OC)c(OC)c(OC)c2)cc(N/C=C\C(=O)c2cc(OC)c(OC)c(OC)c2)c1OC`: the GI50 was 1.68 µM in the test with T-47D breast; 4.03 µM in the test on SN12C renal; 4.54 µM in the test on SK-MEL-2 melanoma; 2.91 µM in the test on MALME-3M melanoma; 2.91 µM in the test on SK-OV-3 ovarian; 1.69 µM in the test on SK-MEL-5 melanoma. For the same compound, the GI50 is 3.37 µM with CAKI-1 renal, 3.12 µM with NCI/ADR-RES ovarian and 3.76 µM with 786-0 renal. The TGI is 6.83 µM with T-47D breast; more than 100 µM in the test on SN12C renal; more than 100 µM in the test with SK-MEL-2 melanoma; more than 100 µM with MALME-3M melanoma; more than 100 µM in the test with SK-OV-3 ovarian; 4.48 µM in the test with SK-MEL-5 melanoma. In addition, the TGI in the test with CAKI-1 renal, with NCI/ADR-RES ovarian and in the test on 786-0 renal was more than 100 µM in each case.
